Data: patent publication US20080026076A1 (priority 2003, published 2008)
Entries after “also recorded” stand apart in the source; their conditions may differ. Marks after values point to notes of the source that are not given here.

Columns and labels:
ERK1/2 = ERK1/2 signaling status in left ventricle, immunoblot; assay type: in vivo, rat; conditions: AAC rats fed supplemental quercetin
Description: (§1) Determination of ERK1/2 and Akt signaling status (FIGS. 4A & 4B). All extraction procedures were performed at 4° C. […] After homogenization, the samples were sonicated twice on ice and centrifuged at 11,000×g for 10 min. at 4° C. Supernatants were recovered and stored at −80° C. for subsequent immunoblotting. Protein concentration of whole heart cell lysate was determined using a Bio-Rad Protein assay (Bio-Rad, Hercules, Calif.) with bovine serum albumin (BSA) as a standard.

[1] = Trial: fasting blood lipids and glucose (Cholestech LDX); assay type: in vivo, human; conditions: after quercetin supplementation compared to placebo (data not shown)
Description: During each patient visit whole blood (˜50 μL) was obtained from a digit puncture to determine blood lipids (LDL, VLDL, HDL, total cholesterol) and glucose using a clinical Cholestech LDX blood analyzer (37). Prior to each patient visit, first morning urine was collected, brought to the laboratory, and stored at −80° C. for later analysis of isoprostane concentrations.

Akt = Akt signaling status in left ventricle, immunoblot; assay type: in vivo, rat; conditions: AAC rats fed supplemental quercetin
Description: as §1

[2] = Ferric reducing antioxidant power (FRAP) of plasma; assay type: in vivo, human; conditions: for FRAP, Endpoint: end of quercetin phase
Description: Blood samples were collected after blood pressure was measured. Blood was collected by antecubital venipuncture from fasting subjects into sodium heparin tubes (Becton Dickinson, N.J., USA). Collected blood was immediately stored on ice and centrifuged within 10 minutes at 4° C. for 15 minutes at 2500 g as previously described (36).
FRAP measures the ability of an antioxidant to reduce Fe^3+ to Fe^2+ (40), and is an index of plasma antioxidant potential in hypertensive patients (41-44). This assay was done as previously described (39). Briefly, plasma samples were diluted 1:2 with phosphate buffered saline, followed by addition of a reagent solution containing 0.8 mmol/L 2,4,6-tri-(2-pyridyl)-s-tirazine and 1.7 mmol/l FeCl3.6-H2O. Samples were then incubated at 37° C. for 15 min and the absorbance at 593 nm was recorded in a plate reader (Molecular Devices, Spectramax 340 pc).

8-isoprostane F2α = assay: Urinary 8-isoprostane F2α, enzyme-linked immunoassay; assay type: in vivo, human; conditions: for Urinary Isoprostane, Endpoint: end of quercetin phase
Description: During each patient visit whole blood (˜50 μL) was obtained from a digit puncture to determine blood lipids (LDL, VLDL, HDL, total cholesterol) and glucose using a clinical Cholestech LDX blood analyzer (37). Prior to each patient visit, first morning urine was collected, brought to the laboratory, and stored at −80° C. for later analysis of isoprostane concentrations. Urine 8-isoprostane F2α is a measure of lipid peroxidation and can be used to estimate oxidative stress in humans (45-47). Quantification of 8-isoprostane F2α (also known as 8-epi-PGF2α or 8-iso-PGF2α) in urine samples was performed using a competitive enzyme-linked immunoassay kit (Cayman Chemical, Ann Arbor, Mich.) according to the manufacturers instructions.

[3] = tested on: rats with abdominal aortic constriction (AAC) or sham operated; assay: Post-sacrifice morphometric measurements (body, heart and organ weights, heart rate) to assess cardiac hypertrophy; assay type: in vivo, rat; conditions: for Heart wt.: quercetin diet, mean ± SEM
Source text: In this procedure the abdominal aorta is constricted to increase the afterload on the heart and produce pressure overload. […] Rats consumed this diet for 7 days.
On the 8th day, 5 rats were surgically modeled for pressure overload by constricting the abdominal aorta to a diameter of 0.63 mm with a Weck hemoclip. The other 5 rats were sham operated (anesthetized and the aorta exposed, but not constricted). […] Another group of 10 rats were placed on a standard diet with no supplement and treated in an identical fashion with 5 surgically modeled for pressure overload and 5 sham operated. […] Two weeks after surgery post-sacrifice morphometric measurements are obtained by measuring total heart weight, left ventricle weight, and calculating heart:body weight and left ventricle:body weight ratios to assess cardiac mass and cardiac hypertrophy.
Post-sacrifice morphometric measurements are obtained by measuring body weight, total heart weight, calculating heart:body weight ratios and heart rate to assess cardiac mass and cardiac hypertrophy.

[4] = 30 mg/kg quercetin (p.o.) in rats (ref. 61); cited from earlier work
[5] = Plasma antioxidant reserve (PAR); assay type: in vivo, human; conditions: for PAR, Endpoint: end of quercetin phase
Description: Blood samples were collected after blood pressure was measured. Blood was collected by antecubital venipuncture from fasting subjects into sodium heparin tubes (Becton Dickinson, N.J., USA). Collected blood was immediately stored on ice and centrifuged within 10 minutes at 4° C. for 15 minutes at 2500 g as previously described (36). […] Ex-vivo amplification of isoprostanes was accomplished by introducing a source of free radicals (3-morpholinosydnonimine, SIN-1) into the blood plasma to induce oxidation of lipoproteins (39). Uric acid, a major water soluble antioxidant present in plasma, was removed using uricase prior to introduction of SIN-1 so that any protection provided by other antioxidants could be measured. Therefore, PAR measures the non-urate antioxidant capacity, or antioxidant power, of blood.

[6] = tested on: NE precontracted aortic segments; assay: Vascular reactivity in segments of aorta, wire-type myograph; assay type: in vivo, rat
Description: Animals are anesthetized, the heart and aorta excised, and vascular reactivity is assessed in segments of aorta using a wire-type myograph.

[7] = both groups of hypertensive subjects
[8] = sham-operated Q-fed animals (n=10)

O=c1c(O)c(-c2ccc(O)c(O)c2)oc2cc(O)cc(O)c12 [quercetin, 3,5,7,3′,4′-pentahydroxyflavone]
activation of ERK1/2 (ERK1/2): reduced | Fasting blood glucose levels [1]: unchanged | activation of Akt (Akt): prevented | fasting plasma FRAP, quercetin supplementation vs. placebo [2, 7]: not altered | FRAP, Endpoint ([2]; prehypertensive (n=10), baseline 1080 ± 48): 1106 ± 61 µmol/L | FRAP, Endpoint ([2]; stage 1 hypertensive (n=8), baseline 1056 ± 59): 1152 ± 69 µmol/L | fasting urinary 8-isoprostane F2α concentration, quercetin supplementation vs. placebo (8-isoprostane F2α; [7]): not altered | Urinary Isoprostane, Endpoint (8-isoprostane F2α; prehypertensive (n=10), baseline 518 ± 55): 520 ± 75 ng/g creatine | Urinary Isoprostane, Endpoint (8-isoprostane F2α; stage 1 hypertensive (n=8), baseline 822 ± 249): 549 ± 59 ng/g creatine | Heart wt. ([3]; AAC + Q (n = 9)): 1.18 ± 0.03^b g | cardiac hypertrophy ([3]; AAC-Q rats compared with AAC and sham rats, two weeks after surgery): lower level of cardiac hypertrophy; also recorded: levels of hypertrophy in between S and AAC rats | Heart wt. ([3]; Sham + Q (n = 10)): 1.01 ± 0.03^a g | hypertensive response to i.v. administration of angiotensin II [4]: significantly blunted the hypertensive response | fasting plasma PAR, quercetin supplementation vs. placebo [5, 7]: not altered | PAR, Endpoint ([5]; prehypertensive (n=10), baseline 279 ± 48): 266 ± 32 pg/mL | PAR, Endpoint ([5]; stage 1 hypertensive (n=8), baseline 258 ± 55): 281 ± 74 pg/mL | maximal ACh-evoked relaxation ([6]; AAC-Q rats (n=9), untreated AAC 30±3): 44±3% | SNP-evoked relaxation ([6]; AAC-Q rats (n=9), untreated AAC 56±3): 71±4% | SNP-evoked relaxation [6, 8]: 71±5% | maximal ACh-evoked relaxation [6, 8]: 38±4%
